# According to patent US20230321181A1, “COMPOSITION FOR PREVENTION, IMPROVEMENT OR TREATMENT OF ALLERGIC DISEASE OR ITCHING COMPRISING PENTAPEPTIDE AS ACTIVE INGREDIENT” (CAREGEN CO, LTD., priority 2020, published 2023):
# Assays:
# [1] = tested on: mast cells (rat basophilic leukemia cell line, RBL-2H3); assay: Degranulation (β-hexosaminidase release) in DNP-IgE/DNP-HSA stimulated mast cells; assay type: cell-based; conditions: 10 μM or 100 μM, 30 min pretreatment, DNP-IgE sensitized, DNP-HSA 3 hours, vs control (NC)
# Experimental: In order to confirm the effect of inhibiting allergic inflammatory response and improving atopic dermatitis by the pentapeptide of the present invention, the degree of degranulation was confirmed using mast cells (rat basophilic leukemia cell line, RBL-2H3).
# Specifically, RBL-2H3 cells were inoculated into a 12-well plate at a density of 5×10^5 cells/well, and then cultured overnight at a 37° C., 5% CO2 incubator. Then, the cells were sensitized by adding DNP-IgE to a complete medium. After 3 hours, it was washed 3 times with DPBS and then PIPES buffer was added thereto. In addition, an immune response was induced by pretreatment with the pentapeptide of the present invention synthesized in Example 1 for 30 minutes and then with DNP-HSA for 3 hours. After that, 25 μL of the supernatant was recovered, 25 μL of the substrate solution (5 mM p-nitrophenyl-N-acetyl-β-D-glucosaminide dissolved in 0.2 M sodium citrate buffer, pH 4.5) was added thereto, and then incubated at 37° C. for 90 minutes to react. After the reaction, 200 μL of stop solution (0.1 M Na2CO3/NaHCO3, pH 10.0) was added to each well to stop the enzymatic reaction, and absorbance was measured at 405 nm using a microplate reader. β-hexosamidase secreted from the supernatant was quantified according to Equation 1 below after adding 0.5% Triton X-100 solution to the cells. […]
# [2] = High temperature stability at 121° C. (HPLC); assay type: physicochemical; conditions: 1000 ppm in sterile distilled water, 15 and 30 minutes
# Experimental: The peptide of the present invention was dissolved in sterile distilled water at a concentration of 1000 ppm, heated at 121° C. for 15 minutes and 30 minutes, followed by HPLC analysis.
# [3] = tested on: mast cells (rat basophilic leukemia cell line, RBL-2H3); assay: Expression of inflammation-related cytokines in mast cells (RT-PCR); assay type: cell-based; conditions: RBL-2H3, DNP-IgE sensitized, DNP-HSA 2 hours, vs control (NC)
# Experimental: In order to confirm the effect of inhibiting allergic inflammatory response and improving atopic dermatitis by the pentapeptide of the present invention, the expression pattern of inflammation-related cytokines was confirmed using mast cells (rat basophilic leukemia cell line, RBL-2H3).
# Specifically, RBL-2H3 cells were inoculated into a 12-well plate at a density of 5×10^5 cells/well, and then cultured overnight at a 37° C., 5% CO2 incubator. Then, the cells were sensitized by adding DNP-IgE to a complete medium. After 3 hours, it was washed 3 times with DPBS and then PIPES buffer was added thereto. In addition, an immune response was induced by pretreatment with the pentapeptide of the present invention synthesized in Example 1 for 30 minutes and then with DNP-HSA for 2 hours. At this time, 20 μg/mL of ketotifen was used as a positive control.
# After recovering the cells and then isolating RNA, cDNA was synthesized from the isolated RNA using a cDNA synthesis kit (Intron, Korea). A polymerase chain reaction was performed using the synthesized cDNA, PCR premix (Intron, Korea) and IL-3, IL-4, and TNF-α primers, and the amplified PCR product was electrophoresed on an agarose gel to confirm a DNA band. The primer sequences used at this time are as shown in [Table 1].
# mouse splenocytes = assay: Expression of inflammation-related cytokines in splenocytes (RT-PCR); assay type: cell-based; conditions: TNF-α induced, 30 minutes, vs control (NC)
# Experimental: In order to confirm the effect of inhibiting allergic inflammatory response and improving atopic dermatitis by the pentapeptide of the present invention, the expression pattern of inflammation-related cytokines was confirmed using mouse splenocytes.
# Specifically, after separating mouse splenocytes, the cells were inoculated into a 24-well plate at a density of 1×10^7 cells/well, and then cultured overnight at a 37° C., 5% CO2 incubator. After changing the medium to a serum-free medium, 4 hours later, the pentapeptide of the present invention and TNF-α were treated and cultured for 30 minutes. At this time, 20 μg/mL of ketotifen was used as a positive control.
# After recovering the cells and then isolating RNA, cDNA was synthesized using a cDNA synthesis kit (Intron, Korea). A polymerase chain reaction was performed using the synthesized cDNA, PCR premix (Intron, Korea) and TNF-α, IL-113 and COX-2 primers, and the amplified PCR product was electrophoresed on an agarose gel to confirm a DNA band. The primer sequences used at this time are as shown in [Table 2].
# [4] = High temperature stability during long-term storage at 45° C. (HPLC); assay type: physicochemical; conditions: 1000 ppm in sterile distilled water, 7 to 75 days
# Experimental: The peptide of the present invention consisting of the amino acid sequence of SEQ ID NO: 1 was dissolved in sterile distilled water at a concentration of 1000 ppm, stored at 45° C. for 7 days, 14 days, 28 days, 60 days and 75 days, followed by HPLC analysis.
substance,measurement,setting,value
KFLIK (Pentapeptide) [pentapeptide of the present invention],release amount of β-hexosamidase,[1],decreased in a concentration-dependent manner
same,high-temperature stability at maximum heating temperature,[2],maintained stability for 30 minutes
same,expression of IL-3,[3],significantly reduced
same,expression of IL-4,[3],significantly reduced
same,expression of TNF-α,[3],significantly reduced
same,expression of COX-2,mouse splenocytes,significantly reduced
same,expression of IL-1β,mouse splenocytes,significantly reduced
same,expression of TNF-α,mouse splenocytes,significantly reduced
same,high-temperature stability during long-term storage,[4],maintained stability for 75 days
